Data reported in PubChem BioAssay (NCI).
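Cultured in 96-well plates, cells were exposed to test compound for 48 hours across five concentrations. TGI is the concentration that stops growth completely.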

Tests used:
Assay in all cases: NCI tumour cell line growth inhibition, 48 h
K-562 leukemia = system: K-562 leukemia
A549 NSCLC = system: A549 NSCLC
OVCAR-8 ovarian = system: OVCAR-8 ovarian
SF-539 CNS = system: SF-539 CNS
SF-268 CNS = system: SF-268 CNS
TK-10 renal = system: TK-10 renal
SK-OV-3 ovarian = system: SK-OV-3 ovarian
SW-620 colon = system: SW-620 colon
LXFL 529 NSCLC = system: LXFL 529 NSCLC
OVCAR-3 ovarian = system: OVCAR-3 ovarian
SF-295 CNS = system: SF-295 CNS
CCRF-CEM leukemia = system: CCRF-CEM leukemia
HT29 colon = system: HT29 colon
SK-MEL-28 melanoma = system: SK-MEL-28 melanoma
LOX IMVI melanoma = system: LOX IMVI melanoma
A498 renal = system: A498 renal
UACC-62 melanoma = system: UACC-62 melanoma
MOLT-4 leukemia = system: MOLT-4 leukemia
SK-MEL-2 melanoma = system: SK-MEL-2 melanoma
DMS 114 small cell lung = system: DMS 114 small cell lung
NCI-H522 lung = system: NCI-H522 lung
KM12 colon = system: KM12 colon
EKVX NSCLC = system: EKVX NSCLC
DLD-1 colon = system: DLD-1 colon
786-0 renal = system: 786-0 renal
NCI-H226 lung = system: NCI-H226 lung
IGROV1 ovarian = system: IGROV1 ovarian
HOP-62 NSCLC = system: HOP-62 NSCLC
HCT-116 colon = system: HCT-116 colon
SNB-75 CNS = system: SNB-75 CNS
SR leukemia = system: SR leukemia
DMS 273 small cell lung = system: DMS 273 small cell lung
NCI-H460 lung = system: NCI-H460 lung
XF 498 CNS = system: XF 498 CNS
COLO 205 colon = system: COLO 205 colon
RPMI-8226 leukemia = system: RPMI-8226 leukemia
M14 melanoma = system: M14 melanoma
ACHN renal = system: ACHN renal
SK-MEL-5 melanoma = system: SK-MEL-5 melanoma
NCI-H23 lung = system: NCI-H23 lung
OVCAR-5 ovarian = system: OVCAR-5 ovarian
HCC-2998 colon = system: HCC-2998 colon
HCT-15 colon = system: HCT-15 colon
MALME-3M melanoma = system: MALME-3M melanoma
SNB-19 CNS = system: SNB-19 CNS
SN12C renal = system: SN12C renal
UACC-257 melanoma = system: UACC-257 melanoma
SNB-78 CNS = system: SNB-78 CNS
UO-31 renal = system: UO-31 renal
U251 CNS = system: U251 CNS
KM20L2 colon = system: KM20L2 colon
HOP-92 NSCLC = system: HOP-92 NSCLC
RXF 393 renal = system: RXF 393 renal
CAKI-1 renal = system: CAKI-1 renal
HL-60(TB) leukemia = system: HL-60(TB) leukemia
HOP-18 NSCLC = system: HOP-18 NSCLC
RXF-631 renal = system: RXF-631 renal
HS 578T breast = system: HS 578T breast
MCF7 breast = system: MCF7 breast
M19-MEL melanoma = system: M19-MEL melanoma
NCI/ADR-RES ovarian = system: NCI/ADR-RES ovarian
MDA-N = system: MDA-N
OVCAR-4 ovarian = system: OVCAR-4 ovarian
MDA-MB-435 = system: MDA-MB-435
T-47D breast = system: T-47D breast
MDA-MB-231 breast = system: MDA-MB-231 breast
DU-145 prostate = system: DU-145 prostate
BT-549 breast = system: BT-549 breast
PC-3 prostate = system: PC-3 prostate

What does the source list for `N#CC1=C(Cl)NC(Cl)=C(C#N)C1c1ccc(Cl)cc1`?
TGI (K-562 leukemia): 28.5 µM; TGI (A549 NSCLC): 37.1 µM; TGI (OVCAR-8 ovarian): 29.7 µM; TGI (SF-539 CNS): 33.2 µM; TGI (SF-268 CNS): 33 µM; TGI (TK-10 renal): 32.5 µM; TGI (SK-OV-3 ovarian): 31.7 µM; TGI (SW-620 colon): 26.3 µM; TGI (LXFL 529 NSCLC): 29.9 µM; TGI (OVCAR-3 ovarian): 27 µM; TGI (SF-295 CNS): 53.9 µM; TGI (CCRF-CEM leukemia): 65.8 µM; TGI (HT29 colon): 30.1 µM; TGI (SK-MEL-28 melanoma): 41.4 µM; TGI (LOX IMVI melanoma): 29.6 µM; TGI (A498 renal): 81.3 µM; TGI (UACC-62 melanoma): 30.5 µM; TGI (MOLT-4 leukemia): 39.3 µM; TGI (SK-MEL-2 melanoma): 27.5 µM; TGI (DMS 114 small cell lung): 28.8 µM; TGI (NCI-H522 lung): 25.8 µM; TGI (KM12 colon): 33 µM; TGI (EKVX NSCLC): 39.4 µM; TGI (DLD-1 colon): 32 µM; TGI (786-0 renal): 29.2 µM; TGI (NCI-H226 lung): 44.7 µM; TGI (IGROV1 ovarian): 32.9 µM; TGI (HOP-62 NSCLC): 33.1 µM; TGI (HCT-116 colon): 34.4 µM; TGI (SNB-75 CNS): 28.3 µM; TGI (SR leukemia): 44.1 µM; TGI (DMS 273 small cell lung): 31 µM; TGI (NCI-H460 lung): 31.5 µM; TGI (XF 498 CNS): 27.4 µM; TGI (COLO 205 colon): 30.3 µM; TGI (RPMI-8226 leukemia): 37.5 µM; TGI (M14 melanoma): 30.5 µM; TGI (ACHN renal): 34.2 µM; TGI (SK-MEL-5 melanoma): 30.7 µM; TGI (NCI-H23 lung): 32.8 µM; TGI (OVCAR-5 ovarian): > 100 µM; TGI (HCC-2998 colon): 33.2 µM; TGI (HCT-15 colon): 29 µM; TGI (MALME-3M melanoma): 38.7 µM; TGI (SNB-19 CNS): 31 µM; TGI (SN12C renal): 30.9 µM; TGI (UACC-257 melanoma): 34.7 µM; TGI (SNB-78 CNS): 72.5 µM; TGI (UO-31 renal): 30.8 µM; TGI (U251 CNS): 29.8 µM; TGI (KM20L2 colon): 39.3 µM; TGI (HOP-92 NSCLC): 30.5 µM; TGI (RXF 393 renal): 32.9 µM; TGI (CAKI-1 renal): 43.9 µM; TGI (HL-60(TB) leukemia): 45.4 µM; TGI (HOP-18 NSCLC): 33.6 µM; TGI (RXF-631 renal): 29.5 µM

Which results are given for `COc1cc(Nc2nc3c(N)cc(C(F)(F)F)cc3nc2-c2ccccc2)cc(OC)c1OC`?
TGI (K-562 leukemia): > 100 µM; TGI (HS 578T breast): > 83.6 µM; TGI (MCF7 breast): > 100 µM; TGI (A549 NSCLC): > 100 µM; TGI (M19-MEL melanoma): > 100 µM; TGI (NCI/ADR-RES ovarian): > 100 µM; TGI (OVCAR-8 ovarian): > 100 µM; TGI (SF-539 CNS): > 74 µM; TGI (SF-268 CNS): > 100 µM; TGI (TK-10 renal): > 95.4 µM; TGI (MDA-N): > 100 µM; TGI (SK-OV-3 ovarian): > 92.2 µM; TGI (SW-620 colon): > 100 µM; TGI (LXFL 529 NSCLC): > 100 µM; TGI (OVCAR-3 ovarian): > 100 µM; TGI (SF-295 CNS): 53.3 µM; TGI (CCRF-CEM leukemia): > 100 µM; TGI (HT29 colon): > 100 µM; TGI (SK-MEL-28 melanoma): > 100 µM; TGI (LOX IMVI melanoma): > 100 µM; TGI (A498 renal): 7.36 µM; TGI (UACC-62 melanoma): > 92.3 µM; TGI (MOLT-4 leukemia): > 100 µM; TGI (SK-MEL-2 melanoma): > 100 µM; TGI (DMS 114 small cell lung): > 100 µM; TGI (NCI-H522 lung): > 92 µM; TGI (KM12 colon): > 100 µM; TGI (EKVX NSCLC): > 100 µM; TGI (786-0 renal): 74.4 µM; TGI (NCI-H226 lung): > 88.5 µM; TGI (OVCAR-4 ovarian): 58.8 µM; TGI (IGROV1 ovarian): > 100 µM; TGI (HOP-62 NSCLC): > 86.1 µM; TGI (HCT-116 colon): > 100 µM; TGI (SNB-75 CNS): 53.8 µM; TGI (MDA-MB-435): > 100 µM; TGI (SR leukemia): > 100 µM; TGI (DMS 273 small cell lung): > 100 µM; TGI (NCI-H460 lung): > 100 µM; TGI (XF 498 CNS): 47.9 µM; TGI (COLO 205 colon): > 100 µM; TGI (RPMI-8226 leukemia): > 100 µM; TGI (T-47D breast): > 83 µM; TGI (M14 melanoma): > 100 µM; TGI (ACHN renal): > 100 µM; TGI (SK-MEL-5 melanoma): 83 µM; TGI (NCI-H23 lung): > 100 µM; TGI (OVCAR-5 ovarian): > 100 µM; TGI (HCC-2998 colon): > 100 µM; TGI (HCT-15 colon): > 100 µM; TGI (MALME-3M melanoma): 75.9 µM; TGI (SNB-19 CNS): > 91.5 µM; TGI (SN12C renal): > 100 µM; TGI (UACC-257 melanoma): > 100 µM; TGI (UO-31 renal): > 100 µM; TGI (U251 CNS): > 89.2 µM; TGI (KM20L2 colon): 99.9 µM; TGI (HOP-92 NSCLC): 16.7 µM; TGI (MDA-MB-231 breast): > 95.5 µM; TGI (RXF 393 renal): 36.2 µM; TGI (DU-145 prostate): > 100 µM; TGI (CAKI-1 renal): > 100 µM; TGI (BT-549 breast): > 83.5 µM; TGI (HL-60(TB) leukemia): > 100 µM; TGI (PC-3 prostate): > 89.4 µM; TGI (HOP-18 NSCLC): > 81 µM; TGI (RXF-631 renal): > 85.2 µM
